Measured values taken from patent US20070167408A1, “NOVEL ALKYL PHOSPHOLIPID DERIVATIVES WITH REDUCED CYTOTOXICITY AND USES THEREOF” (ZENTARIS GmbH, priority 2005, published 2007).
In brackets after ≈: the same amount, converted by molar mass.

What was measured:
[1] = test system: Aspergillus fumigatus 322-384; test: Anti-fungal broth microdilution (MIC), fungus B; type: cell-based; conditions: filamentous protocol, more than 50% growth inhibition, 48 to 72 h
Description: (§1) Anti-fungal activity of selected compounds of the invention was assessed by means of anti-fungal susceptibility tests as follows.
(§2) The antifungal activities of the compounds of the invention against different fungi were measured according to standard broth microdilution methods of the US National Committee for Clinical Laboratory standards (NCCLS) for yeasts (NCCLS document M27-A, 1997) and filamentous fungi (NCCLS document M38-A, 2002).
(§3) Stock solutions of compounds of the invention were freshly prepared on the days of experiments equal to 1.28 mg/10 ml media. Serial dilutions were performed to achieve the following testing concentrations: 64 μg/ml, 32 μg/ml, 16 μg/ml, 8 μg/ml, 4 μg/ml, 2 μg/ml, 1 μg/ml, 0.5 μg/ml, 0.25 μg/ml and 0.125 μg/ml.
(§4) An inoculum of 10^6 CFU/ml of the fungi strain was prepared in the appropriate medium and transferred to test tubes for incubation.
(§5) The method is used to determine the minimum inhibitory concentrations (MIC) of drugs on fungi strains. […] For the filamentous fungi protocol, MIC determination took place after 48 to 72 h of culture at 35° C. and was defined at that concentration which produced more than 50% visible growth inhibition.

[2] = test system: Aspergillus fumigatus 040-200167; test: Anti-fungal broth microdilution (MIC), fungus C; type: cell-based; conditions: filamentous protocol, more than 50% growth inhibition, 48 to 72 h
Description: as §1, §2, §3, §4, §5

[3] = test system: Candida albicans ATCC 90028; test: Anti-fungal broth microdilution (MIC), fungus E; type: cell-based; conditions: yeast protocol, more than 80% inhibition, 48 h
Description: as §1, §2, §3, §4, §5

[4] = test system: Candida parapsilosis ATCC 22019; test: Anti-fungal broth microdilution (MIC), fungus G; type: cell-based; conditions: yeast protocol, more than 80% inhibition, 48 h
Description: as §1, §2, §3, §4, §5

[5] = test system: Cryptococcus neoformans ATCC 90112; test: Anti-fungal broth microdilution (MIC), fungus H; type: cell-based; conditions: yeast protocol, more than 80% inhibition, 48 h
Description: as §1, §2, §3, §4, §5

[6] = test system: Cryptococcus gattii ATCC 32608; test: Anti-fungal broth microdilution (MIC), fungus J; type: cell-based; conditions: yeast protocol, more than 80% inhibition, 48 h
Description: as §1, §2, §3, §4, §5

[7] = test system: Trypanosoma brucei rhodesiense (strain STIB900); test: In vitro drug activity assay, protozoon B; type: cell-based; conditions: bloodstream form trypomastigotes, 72 hours, Alamar Blue
Description: (§6) In vitro activity of selected compounds of the invention against different protozoa was assessed as follows.
Trypanosoma brucei rhodesiense STIB900 bloodstream form trypomastigotes were maintained in HMI-18 medium (Hirumi H, Hirumi K, J Parasitol. 1989, 75(6):985-989) with 15% heat-inactivated fetal calf serum at 37° C., 5% CO2, humidified atmosphere. Trypomastigotes were washed and resuspended in fresh medium at a concentration of 2×10^5 mL. Test compounds were given to the trypomastigotes and plates were incubated for 72 hours at 37° C., 5% CO2, humidified atmosphere. At 72 hours the plates were assessed microscopically before Alamar Blue was added (Raz et al., Acta Trop. 1997, 68: 139-147). Plates were read after 5 to 6 hours at EX/EM 530/585 nm with a filter cutoff at 550 nm. ED50 values were calculated with Msxlfit (IDBS).
(§7) The following protozoa were assessed: • A) Trypanosoma cruzi (Tulahuan-LACZ amstigotes in PEM, Lorente S O et al., Antimicrobial agents and chemotherapy 2004, 48(8): 2937-2950; Buckner et al., Infection and Immunity 1999, 67(1): 403-409; Buckner et al., Antimicrobial Agents and Chemotherapy 1996, 40(11): 2592-2597) • B) Trypanosoma brucei rhodesiense (strain STIB900, Lorente S O et al., Antimicrobial agents and chemotherapy 2004, 48(8): 2937-2950; Habtemariam S, BMC Pharmacology 2003, 3:6) • C) Plasmodium falciparum (strain K1, Korsinczky M et al., Antimicrobial agents and chemotherapy 2000, 44(8): 2100-2108; Thaitong S and Beale G H, Trans. R. Soc. Trop. Med. Hyg. 1981, 75: 271-273; Trager W and Jensen J B, Science 1976, 193: 673-675) • D) Plasmodium faiciparum (strain 3D7, Mu et al., PLoS Biology 2005, 3(10): e335)

[8] = test system: Plasmodium faiciparum (strain 3D7); test: In vitro drug activity assay, protozoon D; type: cell-based, Plasmodium falciparum; conditions: strain 3D7, 3[H]-hypoxanthine method
Description: as §6
Plasmodium falciparum strain K1 and strain 3D7 parasites were cultured according to Trager W and Jensen J B (Science 1976, 193: 673-675). In vitro drug susceptibility assays with the test compounds were carried out according to Korsinczky M et al. (Antimicrobial agents and chemotherapy 2000, 44(8): 2100-2108) and Fivelman Q L et al. (Antimicrobial agents and chemotherapy 2004, 48(11): 4097-4102) using a ^3[H]-hypoxanthine radioisotope method. ED50 values were calculated with Msxlfit (IDBS).
as §7

[9] = test system: epimastigotes of Trypanosoma cruzi strain Y; test: In vitro activity of miltefosine and benznidazole against epimastigotes; type: cell-based; conditions: 72 h
Description: In vitro activity of Miltefosine and Benznidazole in the course of a combination treatment against Trypanosoma cruzi strain Y was assessed compared to the respective single treatments with miltefosine or benznidazole alone.
Miltefosine and Benznidazol were tested in vitro in combination against epimastigote forms of Trypanosoma cruzi strain Y which were isolated from a chagasic patient in Sao Paulo, Brazil and obtained from Dr. Victor Nussenzweig (Silva, L H. and Nussenzweig, V.; Folia clin. biol., 20: 191-207, 1953). This T. cruzi Y strain can also be ordered at ATCC 50832, while the ATCC strain must be re-adapted by several passages through mice in order to regain the strain's original characteristics of differentiation and virulence.
Epimastigotes were axenially cultured in brain heart infusion medium (BHI, Becton, Dickinson, Cat. No. 221812) supplemented with 10 mg of hemin per liter and 5% heat inactivated fetal calf serum (FCS) at 28° C. with shaking (˜80 rpm) up to a maximum of 10-12 passages, before the cultures were aged to obtain metacyclics that were purified on a DE-52 column (Whatman DEAE cellulose ion exchange column, Waco, Cat. No. 17050-03 or 17050-04) and injected into mice. After 2-4 weeks parasites were recovered from blood and placed back into axenic culture.
Stock solutions of Miltefosine and Benznidazol in concentrations of 10 mg/ml and 20 mg/ml dissolved in methanol were used. Stock solutions were serially diluted with a factor of 2 in BHI-FCS medium. For Benznidazol the following testing concentrations were used: 80 μg/ml, 40 μg/ml, 20 μg/ml, 10 μg/ml, 5 μg/ml and 2.5 μg/ml. The testing concentrations for Miltefosine were 20 μg/ml, 10 μg/ml, 5 μg/ml, 2.5 μg/ml, 1.25 μg/ml and 0.625 μg/ml.
2×10^6 epimastigotes were incubated in BHI-FCS medium with Miltefosine and Benznidazol in a final volume of 200 μl. After 72 h incubation at 28° C., parasite growth was determined by direct counting the number of parasites with a Neubauer chamber. The 50% inhibitory concentrations were determined by linear regression analysis.

In the case of `CCCCCCCCCCCCCCCCOP(=O)([O-])OCC[N+]1(C)CCCCC1` [Compound 2, Phosphoric acid hexadecyl ester 2-(1-methyl-piperidin-1-yl)-ethyl ester], the “MIC, fungus B” value [1] is reported as 2 µg/mL (≈ 4.47 µM), the “MIC, fungus C” value [2] is reported as 6 µg/mL (≈ 13.4 µM) and the “MIC, fungus E” value [3] is reported as 1 µg/mL (≈ 2.23 µM). The “MIC, fungus G” value [4] was 2 µg/mL (≈ 4.47 µM), the “MIC, fungus H” value [5] was 1.5 µg/mL (≈ 3.35 µM) and the “MIC, fungus J” value [6] was 0.75 µg/mL (≈ 1.68 µM). For the same compound, the “ED50 (μg/mL), protozoon B” value [7] was 17.50 µg/mL (≈ 39.1 µM) and the “ED50 (μg/mL), protozoon D” value [8] was 2.21 µg/mL (≈ 4.94 µM).

`CCCCCCCCCCCCCCCCOP(=O)([O-])OCC[N+](C)(C)C` [miltefosine, hexadecylphosphocholine, reference compound] was tested, and the “Epimastigotes [amount/mL]” value ([9]; miltefosine 1.25 ug/mL) was 820.000 amount/mL and the “Epimastigotes [amount/mL]” value ([9]; miltefosine 2.5 ug/mL) was 290.000 amount/mL.
